Laboratory results published in US8518884B2, “Methods for treating atrial or ventricular arrhythmias by administering a G-protein alpha inhibitor” (Northwestern University, priority 2008, dated 2013).
Ends that are not written are not given here.

Tests used:
left atrium = test: Functional studies in pacing-induced CHF and control canine subjects: left atrial ERPs under autonomic manipulation; type: in vivo
Procedure: Canine subjects were divided into three groups. In group 1, CHF was induced by rapid ventricular pacing for 4 weeks (i.e. when the animals began to develop clinical heart failure. In group 2, pacing was performed for only 3 weeks. Group three were control canine subjects not subjected to rapid ventricular pacing. At the end of follow up period, high-density epicardial mapping was performed in the PVs, the PLA and the LAA. ERPs were obtained at multiple sites under the following conditions: a) baseline (BSL), b) left cervical vagal stimulation at 20 Hz (VS), c) beta-stimulation with isoproterenol (ISO), d) beta-blockade with propranolol (PROP) and e) beta-blockade+vagal stimulation (P+VS). VS caused significant mean ERP shortening in all three groups. […] PROP increased the VS effect on ERP in normal controls, but produced an attenuation of this effect in the CHF group (SEE FIG. 37). In this CHF model, after 4 weeks of pacing, an increased vagal effect on atrial refractoriness, an increased cumulative sympathetic effect, and a change in the sympatho-vagal interactions of the left atrium were observed. After 3 weeks of pacing, there is pronounced autonomic remodeling, with evidence of P as well S nerve upregulation in the PVs and left atrium. Both P and S upregulation are more pronounced in the PLA (and to a lesser extent in the PVs) than in the rest of the left atrium. While vagal responsiveness in the left atrium is unaltered at 3 weeks of pacing, it increases after 4 weeks of pacing. […] The autonomic remodeling becomes more pronounced with increasing duration of pacing. […] The increase in β1 binding is consistent with the increase in sympathetic innervation. […] The P upregulation noted in the left atrium in CHF is a compensatory response to S upregulation that occurs in response to CHF. […] However, since normal atria are more densely innervated with vagal fibers (than the ventricle) and also contain a significant amount of IKAch, the compensatory response is likely to be more vigorous in the atrium. The compensatory increase in vagal innervations, and resulting increase in IKAch, may contribute to increased AF substrate.

M2R|Gαi/o interactions [1] = molecular target: T1, M2R|Gαi/o interactions (Canis lupus familiaris, UniProt A0A8I3N4M6); test: Gαx minigenes in the PLA: CCh-induced ERP shortening and AF 3 days after delivery; type: in vivo, dog
T1 construct: from tissue; host or cells: posterior left atrium of intact dogs (in vivo), 3 days after minigene injection and electroporation
T1 sequence (A0A8I3N4M6 1-466): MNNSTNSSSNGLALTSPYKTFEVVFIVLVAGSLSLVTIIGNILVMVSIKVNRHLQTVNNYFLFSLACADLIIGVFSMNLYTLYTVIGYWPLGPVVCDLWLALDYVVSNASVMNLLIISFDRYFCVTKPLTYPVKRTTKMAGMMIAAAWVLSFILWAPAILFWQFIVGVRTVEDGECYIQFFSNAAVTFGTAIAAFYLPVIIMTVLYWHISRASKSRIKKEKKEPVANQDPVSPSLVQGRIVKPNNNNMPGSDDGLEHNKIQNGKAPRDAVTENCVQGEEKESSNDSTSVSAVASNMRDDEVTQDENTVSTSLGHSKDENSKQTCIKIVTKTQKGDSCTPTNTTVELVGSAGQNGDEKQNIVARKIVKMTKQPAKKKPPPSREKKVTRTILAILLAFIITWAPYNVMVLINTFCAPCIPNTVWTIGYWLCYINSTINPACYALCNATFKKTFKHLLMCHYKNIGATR
Procedure: (§1) In a small number of pilot experiments (N=6), 1 mg of Gαi2ctp or GαRp minigene was injected subepicardially in the PLA (also see Results). In the remaining experiments, 15-20 mg of ct-Gαi2ctp (N=5), or 7-10 mg of Gαi2ctp+7-10 mg of Gαo1ctp (N=3), or GαRp (N=5) minigenes was injected in the PLA. Minigenes were made up to a volume of 4 ml and injected at multiple sites (6-8 equally spaced sites, 0.5-1 cm apart; a volume of approximately 0.5 ml was injected at each site) in the PLA so as to cover the entire area between the PVs. […] Immediately after gene injection, electroporation was performed at each site of injection as follows: two gold-plated, needle-style electrodes (10 mm length each) were placed at each gene injection site on the PLA, with an inter-electrode distance of 5 mm; electroporation with performed as previously described in the lung by Dean et al^14, with 8 pulses of is at […] (ECM 830, Harvard Bioscience, Holliston, Mass.). After minigene delivery, the chest was closed and the animal allowed to recover. Vagal stimulation and electrophysiological testing were not performed at baseline, in order to minimize damage to the vagus nerve.
CCh application: ERP shortening was assessed by direct application of CCh, a non-selective MR agonist, to the PLA. […] After each dose, ERP testing was performed in the PLA.
(§2) Atrial Fibrillation Inducibility: AF was defined as an atrial arrhythmia that was irregular in at least one of the recording electrodes. Regular atrial arrhythmias—e.g., atrial flutter and atrial tachycardia—were excluded from AF analysis. AF inducibility was measured as the inducibility index and duration of AF episodes after a single extrastimulus^8,15. As previously described, the inducibility index was defined as the number of AF episodes lasting more than 5 seconds induced by a single atrial extrastimulus divided by the total number of single atrial extrastimuli delivered to measure each ERP (at least 3 for each site)^8. The inducibility index was compared for each maneuver. Mean AF duration for each intervention was also assessed. All data was acquired by a 128-channel mapping system (Prucka Cardiolab, GE, WI) at a sampling rate of 977 Hz. All AF episodes induced during extrastimulus testing were stored for offline analysis. After all ERPs had been obtained, minigene injection was performed as described below.
(§3) Effective Refractory Periods. For each ERP, the pacing protocol was composed of a drive train (S1) of eight beats with a cycle length of 400 ms followed by an extrastimulus (S2). The S2 was decremented by 10 ms until loss of capture. […] Pacing was performed at an output current twice the threshold required for consistent capture of the tissue. The mean ERP was used as the representative ERP for each of the three sites as well as the entire left atrium.

M2R|Gαi/o interactions [2] = molecular target: T1, M2R|Gαi/o interactions; test: Gαx minigenes in the PLA: vagal-induced ERP shortening, AF inducibility, AF duration and dominant frequency 3 days after delivery; type: in vivo, dog
Procedure: as §1
Baseline study: Three days after the initial study, the chest was re-opened. […] The PV plaque was placed circumferentially around the vein while the other two plaques were laid flat on the PLA and LAA epicardium. Effective refractory periods (ERPs) were obtained from 5, 6, and 4 sites on the PV, PLA, and LAA plaque, respectively, at baseline.
Vagal stimulation: For vagal stimulation, the left cervical vagus nerve was isolated, a bipolar stainless steel electrode was attached to the nerve, and stimulation was performed at 20 Hz (15-20V, 2-8 ms) (Grass S44G, Astromed Inc, R1). A vagal response was defined as: 1) sinus node slowing by at least 25% or 2) PR prolongation by more than 25% or 2:1 AV block^13. ERP testing was performed in the presence and absence of VS.
as §2
Offline Electrogram Analysis. Electrograms recorded during the maximum duration AF episodes obtained during extrastimulus testing were analyzed with dominant frequency (DF) analysis. DF is an estimation of activation rate calculated as the frequency with the most power in the power spectrum. The power spectrum is obtained from the Fast Fourier Transform of an electrogram after rectification and low pass filtering (20 Hz). These analyses were performed offline using Matlab (Mathworks, Natick, Mass.).
as §3

Gαi = test: cp-Gα peptide delivery to the PLA with electroporation/sonoporation: ERPs and AF inducibility with vagal stimulation; type: in vivo, canine
Procedure: High-density epicardial mapping was performed in the PVs (2×2 electrodes), the PLA (7×3 electrodes) and the left atrial appendage (LAA) (7×3 electrodes) of canine subjects. Effective refractory periods (ERPs) were obtained at baseline and in response left cervical vagal stimulation (VS) (20 Hz). Cp-Gαi2 peptide (200-330 nM) was then applied topically to the epicardial aspect of the PLA in a canine subgroup. Cp-Gαi3 peptide (200-330 nM) was then applied topically to the epicardial aspect of the PLA of a second subgroup. Electroporation was performed after the application of peptide to enhance intracellular delivery of the peptide. ERPs were then re-measured in the presence and absence of VS.
In canine subjects, high-density epicardial mapping was performed in the PVs (2×2 electrodes), the PLA (7×3 electrodes) and the left atrial appendage (LAA) (7×3 electrodes). Effective refractory periods (ERPs) were obtained at baseline and in response left cervical vagal stimulation (VS) (20 Hz). FLAG-tcp-Gα peptides (200 nM-3 μM of cp-Gαi1/2 (N=8 canine subjects), cp-Gαi3 (N=4 canine subjects), or random-sequence cp-GαoR peptide (N=3 canine subjects) were injected into the PLA epicardium of the canine subjects followed by either sonoporation or electroporation. In a subgroup of the canine subjects, sonoporation or electroporation alone was performed without introduction of cp-Gαi peptide. ERPs were then re-measured in the presence and absence of VS. In a separate set of control animals, ERPs were measured before and after the administration of systemic autonomic blockade with propranolol (0.2 mg/kg)+atropine (0.04 mg/kg).

[3] = 200 nM-3 μM injected into PLA + sono/electroporation

Compound: CC(C)NCC(O)COc1cccc2ccccc12 (stereo not drawn) [PROP, propranolol]
- effect on ERPs (left atrium; CHF canine subjects): ERP lengthening
- effect on the VS effect on ERP (left atrium; CHF group): attenuation
- effect on ERPs (left atrium; control canine subjects): significant shortening of ERPs
- effect on the VS effect on ERP (left atrium; normal controls): increased

Compound: IKNNLKDCGLF [Gαi2ctp]
- CCh-induced ERP shortening in the PLA (M2R|Gαi/o interactions [1]; 3 μM, 10 μM CCh, compared to GαRp dogs): significantly less
- CCh-induced ERP shortening in the PLA (M2R|Gαi/o interactions [1]; 30 μM CCh, compared to GαRp dogs): no significant difference
- CCh-induced ERP shortening in the PLA (M2R|Gαi/o interactions [1]; CCh 3, 10 and 30 μM, compared to baseline ERP): only at 30 μM CCh
- AF duration in response to CCh (M2R|Gαi/o interactions [1]; vs. GαRp dogs): significantly less
- AF inducibility in response to CCh (M2R|Gαi/o interactions [1]; vs. GαRp dogs): significantly less
- vagal-induced ERP shortening in the PLA (M2R|Gαi/o interactions [2]; 3 days after minigene delivery, mean±SE): 19.5 ± 5.0 ms
- vagal-induced ERP shortening in the PLA (M2R|Gαi/o interactions [2]; compared to GαRcpt, FIG. 29A): attenuated
- vagal-induced ERP shortening in the PV and LAA (M2R|Gαi/o interactions [2]; compared to GαRp dogs): no significant difference
- AF inducibility in response to VS (M2R|Gαi/o interactions [2]; inducibility index, vs. GαRp dogs): significantly less
- VS-induced increase in AF dominant frequency (DF) (M2R|Gαi/o interactions [2]; vs. GαRp dogs): significantly less
- mean AF duration in response to VS (M2R|Gαi/o interactions [2]; vs. GαRp dogs): significantly less

Compound: cp-Gαi3: cell-penetrating poly-arginine tagged Gαi3 C-terminal peptide (IKNNLKECGLY; also: cell-penetrating poly-arginine tag, length and site not given here)
- VS-induced ERP shortening in the LAA (Gαi; [3]): reduced
- VS-induced ERP shortening in the PLA (Gαi; [3]): eliminated
- VS induced ERP shortening (Gαi; 200-330 nM topical to PLA + electroporation, PLA, PV and LAA): significantly attenuated
